According to US20110190365A1, “Insecticidal 4-phenyl-1H-pyrazoles” (Bayer Crop Science AG, priority 2008, published 2011):

Assay: log P by HPLC on a reversed-phase column (C18), EEC Directive 79/831 Annex V.A8
Format: physicochemical
Description: The stated log P values were determined in accordance with EEC Directive 79/831 Annex V.A8 by HPLC (High Performance Liquid Chromatography) using a reversed-phase column (C18).

[1] = HPLC, reversed-phase C18, mobile phase with formic acid
[2] = HCOOH, Table 4, compounds of formula I-A-Q4

| SMILES | log P (HCOOH) (HCOOH) | other results |
| --- | --- | --- |
| N#Cc1cc(-n2nc(C(F)(F)F)c(-c3cc(F)cc(Cl)c3)c2N)ccc1-n1cncn1 [I-A-Q1-037] | – | log P (HCOOH) [1]: I-A-Q1-037: log P (HCOOH): 3.33 |
| CSc1c(-c2cc(Cl)cc(Cl)c2)c(C(F)(F)F)nn1-c1ccc(C(=O)NCC(F)(F)C(F)F)c(C)c1 [I-A-Q2-282] | I-A-Q2-282: log P (HCOOH): 5.25 | – |
| Cc1cc(-n2nc(C(F)(F)F)c(-c3cc(Cl)cc(Cl)c3)c2N)ccc1C(=O)NC(C)c1cccnc1 (centres unmarked) [I-A-Q2-231] | I-A-Q2-231: log P (HCOOH): 2.69 | – |
| Nc1c(-c2cc(Cl)cc(Cl)c2)c(C(F)(F)F)nn1-c1ccc(F)c(C(F)(F)F)c1 [I-A-Q4-105] | – | log P (HCOOH) [2]: I-A-Q4-105: log P (HCOOH): 5.25 |
| CCCc1nn(-c2ccc(C(=O)NCC(F)(F)C(F)F)c(C)c2)c(N)c1-c1ccc(Cl)cc1 [I-A-Q2-340] | I-A-Q2-340: log P (HCOOH): 3.56 | – |
| Cc1cc(-n2nc(C(F)(F)F)c(-c3cc(Cl)cc(Cl)c3)c2N)ccc1C(=O)NCc1cccc(F)c1 [I-A-Q2-214] | I-A-Q2-214: log P (HCOOH): 4.45 | – |
| N#Cc1cc(-n2nc(C3CC3)c(-c3ccc(Cl)cc3)c2N)ccc1-n1cncn1 [I-A-Q1-064] | – | log P (HCOOH) [1]: I-A-Q1-064: log P (HCOOH): 3.31 |
| N#Cc1cc(-n2nc(C(F)(F)Oc3ccccc3)c(-c3cc(Cl)cc(C(F)(F)F)c3)c2N)ccc1-n1cncn1 [I-A-Q1-074] | – | log P (HCOOH) [1]: I-A-Q1-074: log P (HCOOH): 4.33 |
| Cc1cc(-n2nc(C(F)(F)F)c(-c3cc(Cl)cc(Cl)c3)c2N)ccc1C(=O)NC1CCN(C(=O)C2CC2)CC1 [I-A-Q2-203] | I-A-Q2-203: log P (HCOOH): 3.77 | – |
| Cc1cc(-n2nc(C(C)C)c(-c3ccc(Cl)cc3)c2N)ccc1C(=O)NCC(F)(F)C(F)F [I-A-Q2-338] | I-A-Q2-338: log P (HCOOH): 3.65 | – |
| Cc1cc(-n2nc(C(F)(F)F)c(-c3ccc(Br)cc3)c2N)ccc1C(=O)NCC(F)(F)C(F)F [I-A-Q2-303] | I-A-Q2-303: log P (HCOOH): 3.70 | – |
| CC(=O)Nc1c(-c2cc(Cl)cc(Cl)c2)c(C(F)(F)F)nn1-c1ccc(C(=O)NCc2ccccn2)c(C)c1 [I-A-Q2-197] | I-A-Q2-197: log P (HCOOH): 2.76 | – |
| CC(NC(=O)c1ccc(-n2nc(-c3ccccc3)c(-c3ccc(Cl)cc3)c2N)cc1)C(F)(F)F (centres unmarked) [I-A-Q2-075] | I-A-Q2-075: log P (HCOOH): 3.94 | – |
| Nc1c(-c2cc(Cl)cc(C(F)(F)F)c2)c(C(F)(F)F)nn1-c1ccc(Cl)cn1 [I-A-Q4-016] | – | log P (HCOOH) [2]: I-A-Q4-016: log P (HCOOH): 5.76 |
| Cc1cc(-n2nc(C(F)(F)F)c(-c3ccc(I)cc3)c2N)ccc1C(=O)NCc1ccccn1 [I-A-Q2-356] | I-A-Q2-356: log P (HCOOH): 2.93 | – |
| Nc1c(-c2cc(Cl)cc(Cl)c2)c(C(F)(F)F)nn1-c1ccc(C(=O)O)c(C(F)(F)F)c1 [I-A-Q4-115] | – | log P (HCOOH) [2]: I-A-Q4-115: log P (HCOOH): 4.22 |
| CCc1nn(-c2ccc(C(=O)NCc3ccccn3)c(C)c2)c(N)c1-c1ccc(Cl)cc1 [I-A-Q2-379] | I-A-Q2-379: log P (HCOOH): 2.20 | – |
| CCC(CC)NC(=O)c1ccc(-n2nc(C(F)(F)F)c(-c3cc(Cl)cc(Cl)c3)c2N)cc1C [I-A-Q2-225] | I-A-Q2-225: log P (HCOOH): 4.57 | – |
| N#Cc1cc(-n2nc(C(F)(F)F)c(-c3cc(Cl)cc(Cl)c3)c2N)ccc1-n1cnc2ccccc21 [I-A-Q1-081] | – | log P (HCOOH) [1]: I-A-Q1-081: log P (HCOOH): 4.28 |

| SMILES | log P (HCOOH) (HCOOH) | other results |
| --- | --- | --- |
| CCNC(=O)NCc1ccc(-n2nc(C(F)(F)F)c(-c3cc(Cl)cc(Cl)c3)c2N)cc1Cl [I-A-Q3-024] | – | log P (HCOOH) [1]: I-A-Q3-024: log P (HCOOH): 3.85 |
| Nc1c(-c2ccc(Cl)cc2)c(C(F)(F)F)nn1-c1ccc(C(=O)NC2CC2)cc1 [I-A-Q2-163] | I-A-Q2-163: log P (HCOOH): 3.13 | – |
| CC(NC(=O)c1ccc(-n2nc(-c3ccccc3)c(-c3ccc(Cl)cc3)c2N)cc1)c1ccccc1 (centres unmarked) [I-A-Q2-077] | I-A-Q2-077: log P (HCOOH): 4.17 | – |
| Nc1c(-c2ccc(Cl)cc2)c(C2CC2)nn1-c1ccc(Cl)cn1 [I-A-Q4-024] | – | log P (HCOOH) [2]: I-A-Q4-024: log P (HCOOH): 5.36 |
| Cc1cc(-n2nc(C(F)(F)F)c(-c3cccc(F)c3)c2N)ccc1C(=O)NCC(F)(F)C(F)F [I-A-Q2-311] | I-A-Q2-311: log P (HCOOH): 3.27 | – |
| Cc1cc(-n2nc(C(F)(F)F)c(-c3cc(Cl)cc(Cl)c3)c2N)ccc1C(=O)NC(C)c1ccc(F)cc1 (centres unmarked) [I-A-Q2-247] | I-A-Q2-247: log P (HCOOH): 4.57 | – |
| FC(F)(F)c1nn(-c2ccc(I)cc2)c(I)c1-c1cc(Cl)cc(Cl)c1 [I-A-Q4-018] | – | log P (HCOOH) [2]: I-A-Q4-018: log P (HCOOH): 6.50 |
| CC(NC(=O)c1ccc(-n2nc(C(F)(F)F)c(-c3cc(Cl)cc(Cl)c3)c2N)nc1)c1ccccn1 (centres unmarked) [I-A-Q2-102] | I-A-Q2-102: log P (HCOOH): 4.06 | – |
| Cc1cc(-n2nc(C(F)(F)F)c(Br)c2N)ccc1C(=O)O [XI-A-086] | XI-A-086: log P (HCOOH): 2.54 | – |
| Cc1cc(-n2nc(C(F)(F)F)c(I)c2N)ccc1C(=O)O [XI-A-087] | XI-A-087: log P (HCOOH): 2.58 | – |
| CC(=O)Nc1[nH]nc(C(F)(F)F)c1-c1ccc(Cl)cc1Cl [IX-204] | – | log P (HCOOH) (HCOOH, compounds of the formula (IX), Table 11): IX-204: log P (HCOOH): 2.79 |
| Cc1cc(-n2nc(C(F)(F)Oc3ccc(Cl)cc3)c(-c3cc(Cl)cc(C(F)(F)F)c3)c2N)ccc1C(=O)NCC(F)(F)C(F)F [I-A-Q2-294] | I-A-Q2-294: log P (HCOOH): 4.95 | – |
| N#Cc1cc(-n2nc(C(F)(F)Oc3ccccc3Cl)c(-c3cc(Cl)cc(C(F)(F)F)c3)c2N)ccc1-n1cncn1 [I-A-Q1-073] | – | log P (HCOOH) [1]: I-A-Q1-073: log P (HCOOH): 4.51 |
| Cc1nn(-c2ccc(-n3cncn3)c(C#N)c2)c(N)c1-c1cc(Cl)ccc1Cl [I-A-Q1-028] | – | log P (HCOOH) [1]: I-A-Q1-028: log P (HCOOH): 2.65 |
| CC(NC(=O)c1ccc(-n2nc(C(F)(F)F)c(-c3cc(Cl)cc(Cl)c3)c2Br)cc1)C(F)(F)F (centres unmarked) [I-A-Q2-096] | I-A-Q2-096: log P (HCOOH): 5.35 | – |
| Nc1c(-c2cc(Cl)cc(Cl)c2)c(C(F)(F)F)nn1-c1ccc(C(=O)NCCC(F)(F)F)cc1 [I-A-Q2-139] | I-A-Q2-139: log P (HCOOH): 4.25 | – |
| Cc1cc(-n2nc(C(F)(F)C(F)(F)F)c(-c3ccc(Cl)cc3)c2N)ccc1C(=O)NCC(F)(F)C(F)F [I-A-Q2-321] | I-A-Q2-321: log P (HCOOH): 4.00 | – |
| CNC(=O)c1ccc(-n2nc(C(F)(F)F)c(-c3ccc(Cl)cc3)c2N)cc1 [I-A-Q2-195] | I-A-Q2-195: log P (HCOOH): 2.96 | – |
| Nc1c(-c2ccc(Cl)cc2Cl)c(C(F)(F)F)nn1-c1ccc(C(=O)O)cc1 [I-A-Q4-095] | – | log P (HCOOH) [2]: I-A-Q4-095: log P (HCOOH): 3.44 |

| SMILES | log P (HCOOH) (HCOOH) | other results |
| --- | --- | --- |
| C=CCNC(=O)c1ccc(-n2nc(C(F)(F)F)c(-c3cc(Cl)cc(Cl)c3)c2N)cc1C [I-A-Q2-062] | I-A-Q2-062: log P (HCOOH): 3.94 | – |
| Nc1c(-c2ccc(F)c(F)c2)c(C(F)(F)F)nn1-c1ccc(C(=O)NC2CC2)cc1 [I-A-Q2-176] | I-A-Q2-176: log P (HCOOH): 2.89 | – |
| CC(NC(=O)c1ccc(-n2nc(C(F)(F)F)c(-c3cc(Cl)cc(Cl)c3)c2N)cc1)C(F)(F)F (centres unmarked) [I-A-Q2-133] | I-A-Q2-133: log P (HCOOH): 4.44 | – |
| Nc1c(-c2cc(Cl)cc(Cl)c2)c(C(F)(F)F)nn1-c1ccc(-n2cncn2)c(-n2cncn2)c1 [I-A-Q1-075] | – | log P (HCOOH) [1]: I-A-Q1-075: log P (HCOOH): 3.28 |
| Cc1cc(CNC(=O)c2ccc(-n3nc(C(F)(F)F)c(-c4cc(Cl)cc(Cl)c4)c3N)cc2C)[nH]n1 [I-A-Q2-259] | I-A-Q2-259: log P (HCOOH): 3.33 | – |
| CC(NC(=O)c1ccc(-n2nc(C(F)(F)F)c(-c3ccc(Cl)c(Cl)c3)c2N)cc1)C(F)(F)F (centres unmarked) [I-A-Q2-155] | I-A-Q2-155: log P (HCOOH): 4.11 | – |
| Nc1c(-c2cc(Cl)cc(Cl)c2)c(C(F)(F)F)nn1-c1ccc(C(=O)NCc2ncccn2)cc1 [I-A-Q2-137] | I-A-Q2-137: log P (HCOOH): 3.40 | – |
| Cc1cc(-n2nc(C(F)(F)OC(F)(F)C(F)(F)OC(F)(F)F)c(-c3cc(Cl)cc(C(F)(F)F)c3)c2N)ccc1C(=O)NCC(F)(F)C(F)F [I-A-Q2-287] | I-A-Q2-287: log P (HCOOH): 5.33 | – |
| Nc1c(-c2cccc(F)c2)c(C(F)(F)F)nn1-c1ccc(C(=O)NC2CC2)cc1 [I-A-Q2-184] | I-A-Q2-184: log P (HCOOH): 2.76 | – |
| N#Cc1cc(-n2nc(C(F)(F)Cl)c(-c3cc(Cl)cc(C(F)(F)F)c3)c2N)ccc1-n1cncn1 [I-A-Q1-049] | – | log P (HCOOH) [1]: I-A-Q1-049: log P (HCOOH): 4.11 |
| Cc1nn(-c2ccc(-n3cncn3)c(C#N)c2)c(N)c1-c1c(F)cccc1F [I-A-Q1-054] | – | log P (HCOOH) [1]: I-A-Q1-054: log P (HCOOH): 2.18 |
| CN(C)C=Nc1c(-c2ccc(Cl)cc2)c(C(F)(F)F)nn1-c1ncc(Cl)cn1 [I-A-Q4-015] | – | log P (HCOOH) [2]: I-A-Q4-015: log P (HCOOH): 3.47 |
| CSCCNC(=O)c1ccc(-n2nc(C(F)(F)F)c(-c3cc(Cl)cc(Cl)c3)c2N)cc1C [I-A-Q2-205] | I-A-Q2-205: log P (HCOOH): 4.17 | – |
| N#Cc1cc(-n2nc(C(F)(F)F)c(-c3cc(Cl)cc(Cl)c3)c2N)ccc1-n1cccn1 [I-A-Q1-082] | – | log P (HCOOH) [1]: I-A-Q1-082: log P (HCOOH): 4.34 |
| Nc1c(-c2cc(Cl)cc(Cl)c2)c(C(F)(F)F)nn1-c1ccc(C(=O)O)cc1 [I-A-Q4-087] | – | log P (HCOOH) [2]: I-A-Q4-087: log P (HCOOH): 3.79 |
| Nc1c(-c2cc(Cl)cc(Cl)c2)c(C(F)(F)F)nn1-c1ccc(-n2cncn2)c(Cl)c1 [I-A-Q1-069] | – | log P (HCOOH) [1]: I-A-Q1-069: log P (HCOOH): 4.14 |
| N#Cc1cc(-n2nc(C(F)(F)F)c(-c3cc(Cl)cc(Cl)c3)c2N)ccc1F [I-A-Q4-103] | – | log P (HCOOH) [2]: I-A-Q4-103: log P (HCOOH): 4.44 |
| Cc1cc(-n2nc(C)c(-c3cc(Cl)ccc3Cl)c2N)ccc1C(=O)NCC(F)(F)C(F)F [I-A-Q2-335] | I-A-Q2-335: log P (HCOOH): 3.04 | – |
